From patent publication US9556113B2, “Combination uses of dichloroacetate and oxamate, and their prodrugs, for cancer treatment” (The South Dakota Board of Regents, priority 2014, dated 2017)
Structures can show the parent of a compound that is named as a salt.

Tests used:
PDK = details: reported (26); read-out: Ki value of DCA for PDK; cited from earlier work
[1] = tested on: HPV+E6E7 Ras tumor (E6/E7/Ras MOEs cells); assay: Tumor response to cisplatin/radiation therapy (CRT), HPV positive HNSCC mouse model; format: in vivo, C57Bl/6 mice; details: oxamate 15 mg/mouse; for tumor's response to CRT (tumor volume, FIG. 18): DCA 6 mg/mouse, daily i.p. on weekdays from day 11, with CRT
Procedure: FIG. 7 illustrates the effects of DCA plus oxamate on tumor growth (A) or on survival (B) with HPV+ model of HNSCC in wild-type C57Bl/6 mice. All mice received 3 rounds of cisplatin (0.132 mg/mouse) plus radiation (8 Gy/mouse) treatment (Tx) at weekly intervals starting […] after tumor initiation. Mice receiving DCA (6 mg/mouse) plus oxamate (15 mg/mouse) were treated every weekday, starting with the first chemoradiation treatment by i.p. injection.
FIG. 8 illustrates a comparison of prodrugs to DCA plus oxamate on tumor growth (A) or on survival (B) with HPV+ model of HNSCC in wild-type C57Bl/6 mice. All mice received 3 rounds of CRT [cisplatin (0.132 mg/mouse) plus radiation (8 Gy/mouse) treatment (Tx) at weekly intervals starting 11 days after tumor initiation]. Mice receiving DCA (6 mg/mouse) plus oxamate (2.2 mg/mouse) were treated every weekday starting with the first chemoradiation treatment by i.p. injection. Mice treated with AT-N4-001 or AT-N4-002 prodrugs (7.6 mg/mouse) were treated on the same schedule as mice treated with DCA+oxamate.
FIG. 18. The effects of DCA, oxamate, DCA plus oxamate on the responses of HPV+E6E7 Ras tumor to CRT. One million E6/E7/Ras MOEs cells were injected subcutaneously into the rear leg of wild-type C57Bl/6 mice. After 11 days, a treatment with DCA (6 mg/mouse) and oxamate (15 mg/mouse) were injected daily by i.p. on weekdays for the remainder of the experiment. All mice received three rounds of treatment with CRT (0.132 mg/mouse cisplatin and 8 Gy radiation, weekly starting at day 11). Tumor volume is mm^3.
FIG. 19 depicts the effects of DCA plus oxamate vs the effects of prodrug 1 or prodrug 2 on the responses of HPV+E6E7 Ras tumor to CRT. Tumors were initiated by injecting 0.5×10^6 E6/E7/Ras MOEs cells. After 11 days, a treatment with DCA (6 mg/mouse) plus oxamate (2 mg/mouse), or prodrug 1 (7.6 mg/mouse), or prodrug 2 (7.6 mg/mouse) was initiated daily by i.p. on weekdays. The doses of DCA and oxamate were equal molar equivalents as would be released from the prodrugs. All mice received three rounds of treatment with CRT (0.132 mg/mouse cisplatin and 8 Gy radiation, weekly starting at day 11). Tumor volume is in mm^3.
The effects of various treatments on tumor responses were carried out by examining whether the treatment could improve tumor's response to CRT with a HPV positive HNSCCs mouse model. CRT is a standard treatment for HPV-positive HNSCC in the clinic (46). […] Applicants also used this model to investigate the effects of lactate on CRT-induced immune-mediated cancer clearance (46) and DCA's effect on the tumor's response to CRT (unpublished data). The literature reported dosages of DCA and oxamate were used (6,23,52,53)(41).
To study the effects of the prodrugs on tumor growth in vivo, C57Bl/6 immune-competent mice implanted with E6/E7/Ras MOEs cells were used as described previously (46). All experiments were performed in accordance with institutional and national guidelines and regulations with the protocol approved by the Animal Care and Use Committee at Sanford Research. Briefly, 1×10^6 tumor HPV+HNSCC cells were injected into the right subcutaneous flank of syngeneic male C57Bl/6 mice. Eleven days after tumor initiation, treatment was initiated daily on weekdays by i.p. injection of vehicle, DCA, Oxamate, DCA+oxamate, prodrug 1, or prodrug 2. All mice received three rounds of treatment with cisplatin/radiation therapy (CRT: 0.132 mg/mouse cisplatin and 8 Gy radiation, weekly starting at day 11). Tumor dimensions were measured weekly to monitor growth. Mice with tumors reaching a volume of 3000 mm^3 or becoming substantially emaciated were euthanized.
To study the effects of the new prodrugs on tumor growth in vivo, C57Bl/6 immune-competent mice were used. Tumors were established on the right flank of the leg. After 11 days, treatment was initiated with daily i.p. injection of vehicle, AT-N4-001, or AT-N4-002. […]

[2] = clinical use, reference (24); cited from earlier work
E6E7/Ras MTE cells = assay: Clonogenic growth (colony formation); format: cell-based, mouse; details: 5 mM prodrugs, 10 mM DCA, 7 days, vs DMSO
Procedure: FIG. 4 illustrates prodrugs AT-N4-001 and AT-N4-002 inhibiting cell proliferation and colony growth of E6E7/Ras MTE cells. (A) E6E7/Ras MTE cultures were treated with DMSO (Con), AT-N4-001, or AT-N4-[…] 002 at the indicated concentration for one day. Live cell number was then determined using a trypan blue exclusion assay. (B) E6E7/Ras MTE cells were seeded on 100-mm plate at 500 cells per plate (in triplicate). After one day, cells were treated as indicated and allowed to grow until colonies of untreated controls reached 50 or more cells (7 days). Plates were stained with Coomassie blue to visualize the colonies. (C) Quantification of colonies described in B. Colonies with more than 15 cells were counted.
E6E7/Ras MTE cells are mouse tonsilar epithelial cells that have been transformed by HPV oncogenes E6 and E7 together with activated ras. They form tumors in mice and are a model of human HPV+HNSCC. These cells were treated in culture with either vehicle control (DMSO), AT-N4-001, or AT-N4-002 at concentrations of 1 mM, 2.5 mM and 5 mM for one day. Live cells were counted using a hemocytometer (FIG. 4A). […] The effects of the compounds on clonogenic growth of the cells were also tested. E6/E7/Ras MTE cells were seeded in 100 mm plates in triplicate, and the next day cells were treated with either vehicle control DMSO, 5 mM AT-N4-001, 5 mM AT-N4-002, or 10 mM DCA. DCA was used at a twice the concentration because the prodrugs each carry two molecules of DCA.

E6E7/Ras cells = assay: Lactate secretion into culture medium, enzyme based assay; format: cell-based, mouse; details: 5 mM each, 4 hours
Procedure: FIG. 5 illustrates the reduction of lactate secretion in cultured cells by prodrugs AT-N4-001 and AT-N4-002. E6E7Ras cells were plated in 100 mm dishes and grown to confluence. The medium was changed to bicarbonate-free DMEM-10% FBS with or without the indicated treatments (5 mM each). Four hours later the medium was collected and lactate was measured using an enzyme based assay from Eton Bioscience. Con indicates the control samples for the DCA and Oxamate samples. DMSO indicates the vehicle only control for the AT-N4-001 and AT-N4-002 prodrug samples.
AT-N4-001 and AT-N4-002 should each release two molecules of DCA and one molecule of oxamate. Both DCA and oxamate are expected to reduce cellular lactate production. Therefore, we examined the changes in lactate after treatment of E6E7/Ras cells with the prodrugs. E6E7/Ras cells were seeded into 100 mm dishes and the next day treated with 5 mM AT-N4-001, 5 mM AT-N4-002, 5 mM DCA plus 5 mM oxamate, or 5 mM DCA alone. Culture medium was collected after 4 hours of treatment and lactate levels were determined (FIG. 5). […] To confirm the effects of these compounds on lactate production, the extra cellular acidification rate (ECAR) was measured using a Seahorse XF24 Extracellular Flux analyzer. Since lactate is transported from cells together with a proton, acidification of the culture medium (ECAR) is an estimate of lactate production and the glycolytic rate of cells. In the experiment shown in FIG. 6A, ECAR measurements were initiated in the absence of glucose. At point A, glucose was added and ECAR measurements continued. […] At point B, additional glucose along with vehicle (control), DCA plus oxamate, or AT-N4-002 was added. […] This is shown by a bar graph in FIG. 6B.

mammalian LDH = details: reference (47); read-out: Ki value of oxamate for mammalian LDH; cited from earlier work
[3] = tested on: nasopharyngeal carcinoma cells / normal nasopharyngeal epithelial cells; details: reference (44); cited from earlier work
[4] = reference (44); cited from earlier work

Row | Structure (SMILES) | Ki (PDK) | tumor's response to CRT (tumor volume, FIG. 18) [1] | effectiveness of DCA versus oxamate in improving response to CRT ([1]; FIG. 18, DCA 6 mg/mouse, with CRT) | clinical safety and tolerability [2] | colony size (FIG. 4B) (E6E7/Ras MTE cells) | lactate production (culture medium, FIG. 5) (E6E7/Ras cells) | Ki (mammalian LDH) | nasopharyngeal carcinoma cell proliferation in vitro and in vivo [3] | toxicity to normal nasopharyngeal epithelial cells in vitro [3] | tolerability in mice [4]
1 | O=C([O-])C(Cl)Cl.[Na+] [DCA, dichloroacetic acid sodium salt, reference compound] | 10 to 250 µM | improved tumor's response to CRT | more effective than oxamate | safe and well tolerated with relatively modest toxicities | approximately equal reductions in colony size | reduces lactate production but to a lesser extent than the prodrugs |  |  |  | 
2 | NC(=O)C(=O)O [oxamate, oxamic acid sodium salt] |  | improved tumor's response to CRT |  |  |  |  | 116 µM | significant suppression | minimum toxicity | well tolerated
